# Source: patent US7332513B2, “Thiazole-based nitric oxide donors having acyl substituent(s) and uses thereof” (priority 2004, dated 2008)
# Entries after “also recorded” stand apart in the source; their conditions may differ.
# Key:
# isolated rat aorta [1] = assay: In vitro vasorelaxation, cumulative concentration-response curves on rat aortic rings contracted with epinephrine; type: cell-based; settings: isolated rat aorta pre-treated with 1 μM epinephrine
# Excerpt: Male Sprague Dawley rats were anaesthetized using intraperitoneal injection of ketamine and xylazine (50 and 10 milligram per kilogram, respectively) and the thoracic aorta, the large upper portion of the descending aorta, starting at the caudal border of the chest bone, was removed thereafter, while carefully removing the paraadventetial tissue surrounding the vessel. Aortae were cut into rings of 4-5 millimeters and mounted onto the tissue path. The path buffer (Krebs-bicrbonate) was constantly gassed with carbogen and maintained at 37° C. The rings were preloaded under 2 g tension and equilibrated for 90 minutes, while refreshing the buffer every 15 minutes. After stabilization, the rings were contracted with epinephrine (1 μM). Cumulative Concentration-Response Curves (CCRC) were measured for the vasorelaxing effect induced by adding various concentrations, ranging from 10^−10 M to 10^−5 M of Pet-2, Pet-3, Pet-7, Pet-8, Pet-12, Pet-24, Pet-43, Pet-59, Pet-147, Pet-152 and Pet-154, and glyceryltrinitrate (GTN), according to the procedure described in Feelich et al., Molecular Pharmacology, 56:243-253 (1999). The vehicle, which was used for this experiment was water:ethanol:propyleneglycol at proportional ratio of 1:1:1.
# The vasorelaxing effect of the thiazole-derived NO-donors according to the present invention was measured on slices of thoracic aorta of rats contracted with epinephrine, as described hereinabove.
# The obtained results for Pet-2, Pet-3, Pet-7, Pet-8, Pet-12, Pet-24, Pet-43, Pet-59, Pet-147, Pet-152 and Pet-154 are presented in FIGS. 2-14, and are summarized in Table 3 below.
# isolated rat aorta [2] = assay: In vitro induction of tolerance to NO releasing compounds (vasorelaxation of pre-exposed aortic rings, incl. cross-tolerance); type: cell-based; settings: rat aorta pre-treated with epinephrine and then 0.44 mM of the compound
# Experimental: Aortic rings were prepared as described hereinabove, and were exposed to 0.44 mM GTN (vehicle was water:ethanol:propyleneglycol at proportional ratio of 1:1:1) for 1 hour before CCRC construction, to thereby induce tolerance to nitroglycerine. At the end of the tolerance induction period, rings were thrice washed with the path buffer (Krebs-bicrbonate) every 15 minutes for the following hour and then CCRC for vasorelaxation on GTN-induced tolerance rings were constructed for GTN (pretreated versus untreated rings, FIG. 15), in order to verify the ability to induce and measure GTN tolerance induction in vitro
# Attempted induction of tolerance to the NO-donating compounds of the present invention was performed under the same conditions as for GTN. Thus, in an exemplary experiment, rings were exposed to 0.44 mM solution of Pet-3 in the attempt to induce tolerance for Pet-3. CCRC were then measured for the vasorelaxing effect of Pet-3 on a group of rings which were pre-exposed to Pet-3 as to induce tolerance to Pet-3, and for an untreated control group. The above protocol was repeated with Pet-2, Pet-7, Pet-8, Pet-12, Pet-24, Pet-43, Pet-149 and Pet-152.
# Cross-tolerance studies were conducted using the same technique described above for measuring vasorelaxation of aortic rings from rats. Two groups of aortic rings samples were pre-treated with GTN, then one group was measured for vasorelaxation by GTN and the second group for vasorelaxation by Pet-12, an exemplary NO-donor according to the present invention. For the opposite cross-tolerance studies, two groups of aortic rings samples were pre-treated with Pet-12, then one group was measured for vasorelaxation by GTN and the second group for vasorelaxation by Pet-12.
# [3] = test system: c-GMP in slices of thoracic aorta of rats; assay: Cyclic-GMP measurement in aortic rat tissue (radioimmunoassay); type: cell-based; settings: for levels of cGMP as compared with GTN: isolated rat aorta, FIGS. 25, 27, 33; for cGMP Post-infusion: rat aorta, post-infusion (repeated treatment)
# Experimental: GTN (10^−6 M) was added to the chamber and, 1 minute after exposure to the drug, rings (usually 3-5) were taken, wrapped with aluminum foil and immediately frozen in liquid nitrogen for storage. Control sample group was treated with the vehicle solution only. At the time of analysis, rings were thawed, blotted over a dry gauzed and weighted. A known weight of tissue was homogenized in 2 ml ice-cold modified Hank's balanced salt solution containing (in gram/liter) NaCl 8; KCl 0.4; glucose 1; KH2PO4 0.06; Na2HPO4 0.047; Phenol red 0.017 and further containing 25 mM EDTA (disodium salt). The homogenate was centrifuged at 4000 g (force units) for 10 minutes at 2-4° C. and the supernatant was thereafter transferred into fresh pre-cooled test tube containing 1 ml of acetonitrile. The tubes were vortex mixed for a few seconds and subsequently centrifuged at 4000 g for 5 minutes at 2-4° C., to remove the precipitated protein. Each supernatant was transferred into a clean test tube and evaporated to dryness under a stream of nitrogen at 55° C. The dry residue was reconstituted with 10 volumes of Tris-EDTA buffer pH 7.5 (0.05 M Tris containing 4 mM EDTA). Aliquots of 100 μl of the reconstituted solution in duplicate were used for c-GMP measurements using Amersham RIA kit, as is described in Haj-Yehia & Benet [Pharmacology, 1995, 273, 1, pp. 94-100]. Standard curves were plotted with six concentrations (0, 0.5, 1, 2, 4 and 8 pmoles of c-GMP per tube).
# The NO-tolerance effect of GTN and NO-donor compounds according to the present invention was measured by following the production of c-GMP in slices of thoracic aorta of rats. Thus, the production of c-GMP was measured as described in the methods section above for the reference NO-donor compound GTN, and for the NO-donors of the present invention Pet-2, Pet-3, Pet-7, Pet-8, Pet-10, Pet-12, Pet-24, Pet-59, Pet-147, Pet-149, Pet-152, Pet-154 and Pet-155.
# [4] = test system: anesthetized hypertensive Sprague-Dawley male rats; assay: Hypotensive effects: mean arterial pressure after iv bolus in phenylephrine-treated rats; type: in vivo, rat; settings: rats pre-treated in vivo with phenylephrine; iv bolus 10-100 micrograms
# Excerpt: These techniques were also used to detect tolerance induction by the NO-donors of the present invention and by GTN. For c-GMP levels and tolerance development, the rat's thoracic aorta was isolated after exposure to the tested compound in vivo, and measured as described above in the in vitro assays.
# Mean arterial pressure (MAP) was monitored and determined during bolus infusion of Pet-2, Pet-3, Pet-7, Pet-8, Pet-12 and Pet-13. Briefly, polyethylene catheters (PE50) were inserted into the carotid artery and into the jugular vein of anesthetized hypertensive Sprague-Dawley male rats (200-300 grams). A blood pressure recorder was placed within the carotid artery. Phenylephrine (0.1 mg) was then injected and the mean arterial blood pressure (MABP) was monitored continuously until a stable baseline was reached. The hypotensive effects of intravenous (iv) bolus doses (0.1 mg of each tested compound) administered intravenously at the jugular vein in minimal volume of vehicle (0.2 ml per dose) were evaluated. Five minutes were allowed between each dose, during which the maximal decrease in MAP was recorded and a dose-response graph comparing the hypotensive effect of the compounds was constructed.
# [5] = test system: cGMP in thoracic aorta of rats treated in vivo; assay: Induction of in vivo nitrate tolerance (16 hour infusion, then cGMP in isolated aorta); design: species or system rat; settings: rats infused in vivo 16 hours, aorta re-exposed to the compound
# Experimental: Male Sprague Dawley rats (220 to 250 grams) were housed under constant temperature and humidity conditions. Light was maintained at a 12/12 light dark cycle. Except for 12 hours before the experiment, when food fasting was initiated, all rats had free access to standard rat pellet diet and tap water. The animals were anesthetized by intraperitoneal injection of ketamine and xylazine combination (50 and 10 milligram per kilogram, respectively). […] The catheters were filled with normal saline solution containing 1000 IU/ml of heparin and plugged with a metal pin. Catheters were externalized to the back of the neck region and secured by a polyester felt disk.
# After implantation, the rats were individually housed until they regained their preoperative weight and appeared healthy (3 to 4 days post-operation). At this time point (day 0), an osmotic mini-pump (Alza Corp., Palo Alto, Calif.) delivering constant volume (10 μl/hour) of vehicle or drug was connected to one of the intravenous catheters.
# For inducing tolerance to the tested NO-donor according to the present invention, the animals received 200 μg/hour of the tested compound for 16 hours (short-term-induced tolerance). A similar number of animals were processed by the same surgical procedure and received the vehicle alone (10 μl/hour of a solution consisting of 30% ethanol and 30% propylene glycol in sterile distilled water for injection).
# At the end of the infusion periods used for the development of tolerance (16 hour), the rats were anesthetized as described above, the two catheters were externalized and the delivering catheters were disconnected from the mini-pump. The abdomen was opened by midline incision and the thoracic aorta were isolated, washed and cleaned from the surrounding tissues. Strips of the treated aortas were pooled in chambers containing Krebs-Hanseliet buffer (10 ml), and exposed to 1 μM of the tested NO-donor (final concentration) for 120 seconds. The tissues were quickly collected and frozen in liquid nitrogen for cGMP measurement, described hereinabove.
Compound,vasorelaxation effect as compared with glyceryltrinitrate (words) (isolated rat aorta [1]),tolerance induction after pre-treatment with the same compound (isolated rat aorta [2]),levels of cGMP as compared with GTN [3],vasorelaxation effect as compared with glyceryltrinitrate (isolated rat aorta [1]) [fold],cGMP Post-infusion [3] [pmol/g tissue],hypotensive / vasorelaxation effect on heightened mean arterial blood pressure [4],tolerance in vivo: cGMP level in aorta following repeated treatment [5]
"Cc1nc(Nc2nc(C)c(CCO[N+](=O)[O-])s2)sc1CCO[N+](=O)[O-] [Pet-43, Bis-[4-methyl-5-(2-nitrooxy-ethyl)-thiazol-2-yl]-amine]",superior vasorelaxation effect,absence of tolerance induction,–,–,–,–,–
"Cc1nc(N)sc1CCO[N+](=O)[O-] [Pet-10, 4-methyl-5-(2-nitrooxy-ethyl)-thiazole-2-ylamine]",–,–,increased levels of cGMP,–,–,–,–
"Cc1nc(N(C)C)sc1CCO[N+](=O)[O-] [Pet-7, Dimethyl-[4-methyl-5-(2-nitrooxy-ethyl)-thiazol-2-yl]-amine]",superior,absence of tolerance induction,increased levels of cGMP,10,123 ± 12,vasorelaxation effect,–
"Cc1nc(NC(=O)c2cccnc2)sc1CCO[N+](=O)[O-] [Pet-154, N-[4-methyl-5-(2-nitrooxy-ethyl)-thiazol-2-yl]-nicotinamide]",–,–,increased levels of cGMP,–,–,–,–
"Cc1nc(NC(=O)[C@@H](C)c2ccc(CC(C)C)cc2)sc1CCO[N+](=O)[O-] (stereo in doubt) [Pet-152, 2-(4-Isobutyl-phenyl)-N-[4-methyl-5-(2-nitrooxy-ethyl)-thiazol-2-yl]-propionamide]",superior vasorelaxation effect,–,increased levels of cGMP,–,–,–,–
"C=CCNc1nc(C)c(CCO[N+](=O)[O-])s1 [Pet-155, allyl-[4-methyl-5-(2-nitrooxy-ethyl)-thiazol-2-yl]-amine]",superior vasorelaxation effect,–,increased levels of cGMP,–,–,–,–
"CCc1nc(C)c(CCO[N+](=O)[O-])s1 [Pet-2, 2-Ethyl-4-methyl-5-(2-nitrooxy-ethyl)-thiazole]",superior vasorelaxation effect,–,–,–,140 ± 13,–,absence of tolerance induction; also recorded: absence of tolerance effect; also recorded: remained substantially unchanged
Cc1nc(CCCCc2nc(C)c(CCO[N+](=O)[O-])s2)sc1CCO[N+](=O)[O-] [Pet-13],–,–,–,–,–,vasorelaxation effect,–
"Cc1nc(Nc2cccc3ccccc23)sc1CCO[N+](=O)[O-] [Pet-149, [4-Methyl-5-(2-nitrooxy-ethyl)-thiazol-2-yl]-naphthalen-1-yl-amine]",superior vasorelaxation effect,absence of tolerance induction,increased levels of cGMP,–,115 ± 14,–,–
"Cc1nc(-c2ccc(C(F)(F)F)cc2)sc1CCO[N+](=O)[O-] [Pet-59, 4-Methyl-5-(2-nitrooxy-ethyl)-2-(4-trifluoromethyl-phenyl)-thiazole]",superior vasorelaxation effect,–,increased levels of cGMP,–,–,–,–
"Cc1nc(C)c(CCO[N+](=O)[O-])s1 [Pet-3, 2,4-Dimethyl-5-(2-nitrooxy-ethyl)-thiazole]",superior vasorelaxation effect,absence of tolerance induction,increased levels of cGMP,–,118 ± 10,–,–
"CCNc1nc(C)c(CCO[N+](=O)[O-])s1 [Pet-147, Ethyl-[4-methyl-5-(2-nitrooxy-ethyl)-thiazol-2-yl]-amine]",–,–,increased levels of cGMP,–,–,–,–
"CNc1cncc(-c2nc(C)c(CCO[N+](=O)[O-])s2)n1 [Pet-24, Methyl-{6-[4-methyl-5-(2-nitrooxy-ethyl)-thiazol-2-yl]-pyrazin-2-yl}-amine]",–,absence of tolerance induction,increased levels of cGMP,–,112 ± 10,–,–
"Cc1nc(-c2ccccc2)sc1CCO[N+](=O)[O-] [Pet-8, 4-Methyl-5-(2-nitrooxy-ethyl)-2-phenyl-thiazole]",superior vasorelaxation effect,–,increased levels of cGMP,–,136 ± 12,–,–
